Experimental data published in US20250076280A1, “RAPID SCREENING FOR ELEVATED BILE ACIDS USING WHOLE BLOOD” (The University of Toledo, priority 2022, published 2025).

Assays:
RBCs = assay: Osmotic fragility test of RBCs from CCl4-treated mice; assay type: in vivo, mouse; settings: RBCs of L-TBA mice treated with CCl4 for 2 weeks vs vehicle; NaCl osmotic fragility
Method: (§1) C57BL/6J wild-type (WT) mice (Stock #000664) were procured from Jackson Laboratory and bred in-house in specific pathogen-free condition at the University of Toledo College of Medicine and Life Sciences. Mice were housed in cages (n=5 mice/cage) containing corn cob bedding (Bed-O-Cob; The Andersons Co.) and nestlets (Cat #CABFM00088; Ancare). The cages were housed at 23° C. under a 12/12-h light/dark phase cycle and fed a grain-based laboratory chow diet (LabDiet 5001) ad libitum. Mice were screened for serum total bile acids (TBA) prior to weaning. On day 22 for weaning, mice with low bile acids (L-TBA<40 µM) or high bile acids (H-TBA≥40 µM) were segregated into separate cages. To induce liver fibrosis in mice, carbon tetrachloride (Sigma-Aldrich, St. Louis, MO) ([…]) was administered intraperitoncally three times a week for 2 weeks with corn oil (Sigma-Aldrich) (50 μL) serving as vehicle control.
Blood was collected in EDTA-containing tubes and then 10 μl aliquots were placed into a round bottom 96-well plate. […] The degree of red blood cell (RBC) hemolysis was evaluated spectrophotometrically at 540 nm on a Biotek Eon microplate spectrophotometer and normalized to the optical density value of 0.0% buffered salt solution. […] All groups were incubated at 37° C. for 1 hr prior and measured for osmotic fragility.

[1] = Serum total bile acids in carbon tetrachloride-induced liver injury model; assay type: in vivo, mouse; settings: L-TBA mice, CCl4 i.p. three times a week for 2 weeks vs vehicle control
Method: as §1
Total bile acids (TBA) in hemolysis-free sera were measured using a TBA assay kit (Enzyme Cycling Method; Diazyme Laboratories) according to the manufacturer's protocol.

RBCs from L-TBA mice = assay: Osmotic fragility test after ex-vivo bile acid supplementation of RBCs; assay type: cell-based, mouse; settings: 100 μM bile acid in PBS, 1 hr at 37° C. before NaCl osmotic fragility test; vs PBS alone

Row | SMILES | resistance of RBCs to osmotic lysis (RBCs) | increase in serum TBA levels [1] [fold] | resistance to osmotic lysis (hemolysis) of L-TBA RBCs (RBCs from L-TBA mice)
1 | ClC(Cl)(Cl)Cl [CCl4, carbon tetrachloride] | highly resistant to osmotic lysis | 16 | –
2 | C[C@H](CCC(=O)O)[C@H]1CC[C@H]2[C@@H]3[C@H](O)C[C@@H]4C[C@H](O)CC[C@]4(C)[C@H]3C[C@H](O)[C@]12C [cholic acid] | – | – | confer resistance
3 | C[C@H](CCC(=O)NCCS(=O)(=O)O)[C@H]1CC[C@H]2[C@@H]3[C@H](O)C[C@@H]4C[C@H](O)CC[C@]4(C)[C@H]3C[C@H](O)[C@]12C [taurocholate, taurocholic acid] | – | – | failed to induce any resistance
